Experimental data as given in patent US9101630B2, “Use of PDGF-R inhibitors for the treatment of lymph node metastasis of gastric cancer” (priority 2010, dated 2015).
Counter-ions that a name gives are not always drawn.

Tested on: TMK-1 human gastric carcinoma cells implanted into the stomachs of nude mice
Assay: Treatment of established human gastric cancer tumors growing in murine gastric walls; Lyve-1 immunohistochemical determination of the area of lymphatic vessels
Format: in vivo, athymic BALB/c nude mice
Conditions: TMK-1 orthotopic gastric tumors in nude mice, imatinib mesylate 50 mg/kg daily oral gavage for 28 days, started 14 days after implantation, versus control (water), P<0.05
From the text: Animals and orthotopic implantation of tumor cells. Male athymic BALB/c nude mice (Charles River Japan, Tokyo) were maintained under specific pathogen-free conditions and used at 5 weeks of age. Subconfluent gastric cancer cells (TMK-1 or KKLS cells) to be used for implantation were harvested by brief treatment with 0.25% trypsin and 0.02% ethylenediamine tetraacetic acid, and then re-suspended to a final concentration of 2.0×10^7 cells/mL Hanks' solution. With the use of a 30-gauge needle attached to a 1-mL syringe, cells (1×10^6 cells in 50 μl) were implanted into the gastric walls in the nude mice under observation with a zoom stereomicroscope. […]
Treatment of established human gastric cancer tumors growing in murine gastric walls. Fourteen days after orthotopic implantation of TMK-1 cells, mice (n=10 each group) were randomly assigned to receive one of the following two treatments daily oral gavage of water (control group) or daily oral gavage of imatinib mesylate (50 mg/kg, optimal biological dose as determined previously (Hwang R F, et al. Clin Cancer Res 2003; 9: 6534-44) The treatments continued for 28 days. All therapy experiments were performed twice. The mice bearing orthotopic tumors were euthanised by methophane on day 29. For immunohistochemistry, the tumor tissues were fixed in formalin and embedded in paraffin. […]

Cc1ccc(NC(=O)c2ccc(CN3CCN(C)CC3)cc2)cc1Nc1nccc(-c2cccnc2)n1 [imatinib mesylate]
area of lymphatic vessels in tumors (Lyve-1 immunohistochemistry): reduced areas of lymphatic vessels | area of lymphatic vessels in tumors (Lyve-1 immunohistochemistry) (listed as imatinib): significantly reduced the area of lymphatic vessels
